Data taken from PMC11640419, “New Synthetic Analogs of Natural 5Z,9Z-Dienoic Acids—Hybrid Molecules Based on Oleanolic Acid: Synthesis and Study of Antitumor Activity” (Cancers, 2024).
Read-outs that look alike come from different tables or passages of the source.

Legend:
Assay type in all cases: cell-based, human
[1] = Cytotoxicity assay (7-AAD, flow cytometry); conditions: human, Jurkat cells; Jurkat, 24 h incubation
Protocol: (§1) The human cell lines Jurkat, K562, U937, and HEK293 were obtained from the European Collection of Authenticated Cell Cultures (ECACC) and subsequently cultured in accordance with established standard protocols and sterile techniques. […] Subsequently, the cells were seeded into 24-well plates at a density of 5 × 10^4 cells per well and incubated for 12 h (Jurkat, K562, U937) and 24 h (HEK293).
(§2) The viability of the cells was evaluated through the utilization of the 7-AAD (7-aminoactinomycin D) dye (eBioscience™, San Diego, CA, USA). Following a 24 h incubation period with the test substances, the cells were washed with phosphate-salt buffer (PBS) and centrifuged at 400× g for five minutes. […] Subsequently, all cell samples were subjected to analysis on a NovoCyte Penteon flow cytometer (Agilent, Santa Clara, CA, USA).

[2] = system: Jurkat; assay: Cytotoxicity assay (7-AAD, flow cytometry)
Protocol: as §1, §2

[3] = Cytotoxicity assay (7-AAD, flow cytometry); conditions: human
Protocol: (§3) The human cell lines Jurkat, K562, U937, and HEK293 were obtained from the European Collection of Authenticated Cell Cultures (ECACC) and subsequently cultured in accordance with established standard protocols and sterile techniques. The cells were maintained in RPMI 1640 (for Jurkat, K562, and U937) or DMEM (for HEK293) medium, both of which were supplemented with […], 10% FBS (Sigma, Kanagawa, Japan), and 100 units/mL penicillin-streptomycin (Sigma). Subsequently, the cells were seeded into 24-well plates at a density of 5 × 10^4 cells per well and incubated for 12 h (Jurkat, K562, U937) and 24 h (HEK293).
(§4) The viability of the cells was evaluated through the utilization of the 7-AAD (7-aminoactinomycin D) dye (eBioscience™, San Diego, CA, USA). Following a 24 h incubation period with the test substances, the cells were washed with phosphate-salt buffer (PBS) and centrifuged at 400× g for five minutes. The precipitate was resuspended in 200 μL of flow cytometry buffer (PBS without calcium and magnesium, 2.5% FBS) and incubated with a 1 mM 7-AAD dye solution for 15 min in the dark at room temperature. Subsequently, all cell samples were subjected to analysis on a NovoCyte Penteon flow cytometer (Agilent, Santa Clara, CA, USA).

[4] = system: HEK293; assay: Cytotoxicity assay (7-AAD, flow cytometry); conditions: Homo sapiens; HEK293, abstract
Protocol: as §3, §4

[5] = system: K562; assay: Cytotoxicity assay (7-AAD, flow cytometry); conditions: Homo sapiens; K562, abstract
Protocol: as §3, §4

[6] = system: U937; assay: Cytotoxicity assay (7-AAD, flow cytometry); conditions: Homo sapiens, U-937; U937, abstract
Protocol: as §3, §4

[7] = system: Jurkat cells; assay: Cell cycle analysis (MAK344 kit, flow cytometry); conditions: compound at CC50, 24 h
Protocol: Cell cycle analysis was performed using the MAK344 cell cycle assay kit (Sigma-Aldrich, St. Louis, MO, USA). Immediately after incubation with the tested compounds for 24 h, cells were gently washed with ice-cold phosphate-buffered saline (PBS) and centrifuged at 450× g for 5 min. After removing the supernatant, the cell precipitate was resuspended and fixed with 70% ethanol with continuous shaking on ice, and then stored at −18 degrees Celsius for 24 h. Prior to staining, the cells were washed with ice-cold PBS, and then 0.5 mL of the Cell Cycle Assay Kit working solution was added to the cell suspension at room temperature in the dark according to the working protocol. Samples were then analyzed on a NovoCyte Penteon flow cytometer (Agilent, USA).

[8] = system: Jurkat cells; assay: MILLIPLEX MAP 7-plex DNA Damage/Genotoxicity Magnetic Bead Kit (Luminex)
Text: (§5) In this study, we employed Luminex technology (MILLIPLEX® MAP 7-plex DNA Damage/Genotoxicity Magnetic Bead Kit and MILLIPLEX® MAP Early Apoptosis 7-plex Magnetic Bead Kit) to analyze protein analytes in Jurkat cell lysates. […] The Luminex xMAP intracellular protein assay is a multiplex multiparameter assay that employs a multiplex of fluorescent-labeled antibodies and magnetic particles to enhance the sensitivity, dynamic range, and accuracy of the analytical method. Luminex technology is employed to identify the proteins of interest present in each well. The mean fluorescence intensity (MFI) of each measured protein is then converted to its concentration (pg·mL^−1) using specialized software and standard curves.
(§6) The test substances were incubated with the cells at two concentrations, […], for a period of six hours. […] Following exposure, approximately 1 × 10⁶ cells from each well were transferred to 0.5-mL tubes (Eppendorf, Hamburg, Germany) and washed with PBS. Subsequently, the PBS was removed, 10 μL of lysis buffer (Cell Signaling Buffer and Detection Kit, Luminex, Austin, TX, USA) supplemented with 2 × protease and phosphatase inhibitors (Luminex, USA) was added, and the mixture was shaken for 30 s. A cocktail of fluorescence-encoded magnetic bead microspheres (MagPlex®, Luminex, USA) was resuspended and treated with ultrasound. Subsequently, 70 μL of this cocktail, 70 μL of protein standard, and 70 μL of the test sample were added to the wells of a 96-well microplate and incubated for 2 h at room temperature with stirring on an orbital shaker at 700–850 rpm. A magnetic plate was firmly attached to the bottom of a 96-well plate, and all wells were washed three times with 100 μL of wash buffer (Cell Signaling Buffer and Detection Kit, Luminex, USA) added to each well to remove unbound particles. Subsequently, 50 μL of […] to each well, and the samples were incubated for one hour at 4 °C on an orbital shaker set at 700–850 rpm. Subsequently, the samples were washed once more to remove any unbound antibodies. Afterwards, 70 μL of streptavidin-phycoerythrin (streptavidin-PE) (Luminex, USA) was added to each well and incubated for 30 min at room temperature on a shaker at 600 rpm. Subsequently, the samples were washed with streptavidin-PE and resuspended in 100 μL of wash buffer for a period of 2 min on a shaker at 800 rpm. The data were analyzed using the Milliplex Analyst 5.1 software (EMD Millipore, Billerica, MA, USA).

[9] = system: Jurkat cells; assay: MILLIPLEX MAP Early Apoptosis 7-plex Magnetic Bead Kit (Luminex); conditions: 6 h; for Casp 8 protein level: activated caspase-8
Text: as §5, §6

[10] = HEK293 cells, HEK293, 24 h incubation
[11] = K562 cells, K562, 24 h incubation
[12] = U937 cells, U937, 24 h incubation
[13] = 6 h, at CC50 (anisomycin at IC50 0.192 μmol/L), ATR (total)
[14] = 6 h, at CC50 (anisomycin at IC50 0.192 μmol/L), CHK1 (S345)
[15] = 6 h, at CC50 (anisomycin at IC50 0.192 μmol/L), CHK2 (T68)
[16] = 6 h, at CC50 (anisomycin at IC50 0.192 μmol/L), H2AX (S139)
[17] = 6 h, at CC50 (anisomycin at IC50 0.192 μmol/L), MDM2 (total)
[18] = 6 h, at CC50 (anisomycin at IC50 0.192 μmol/L), p21 (total)
[19] = 6 h, at CC50 (anisomycin at IC50 0.192 μmol/L), p53 (S15), genotoxicity panel
[20] = at CC50 (anisomycin at IC50 0.192 μmol/L), BAD (S112)
[21] = at CC50 (anisomycin at IC50 0.192 μmol/L), BCL-2 (S70)
[22] = at CC50 (anisomycin at IC50 0.192 μmol/L), JNK/SAPK1 (T183/Y185)
[23] = at CC50 (anisomycin at IC50 0.192 μmol/L)
[24] = at CC50 (anisomycin at IC50 0.192 μmol/L), activated caspase-9
[25] = at CC50 (anisomycin at IC50 0.192 μmol/L), p53 (S46), apoptosis panel
[26] = at CC50 (anisomycin at IC50 0.192 μmol/L), AKT/PKB (S473)

Work on Cn1nccc1NC(=O)[C@]12CCC(C)(C)C[C@H]1C1=CC[C@@H]3[C@@]4(C)CC[C@H](OC(=O)CCC/C=C\CC/C=C\CCCC(=O)O)C(C)(C)[C@@H]4CC[C@@]3(C)[C@]1(C)CC2 [compound 9a] yielded a CC50 at 24 h [1] of 4.51 ± 0.41 µM, an IC50 ([2]; Homo sapiens, Jurkat, abstract, read-out: IC50 Jurkat) of 4.5 µM and a CC50 at 24 h [3, 10] of 26.2 ± 1.93 µM. The CC50 at 24 h [3, 11] was 3.09 ± 0.34 µM, the CC50 at 24 h [3, 12] was 2.85 ± 0.34 µM and the IC50 [4] was 26.2 µM. The IC50 [5] was 3.1 µM, the IC50 [6] was 2.8 µM and the “cell population in the S-phase (Freq S)” value [7] was 46.10%. For the same molecule, the “percentage of cells in the G2/M phase (Freq G2)” value [7] was 3.96%, the “percentage of cells in the pre-G0 phase (Freq Sub-G1)” value [7] was 8.67% and the ATR protein level ([8]; 6 h, at 0,5CC50) was 119 % of control. The Chk1 protein level ([8]; 6 h, at 0,5CC50) was 97 % of control, the Chk2 protein level ([8]; 6 h, at 0,5CC50) was 645 % of control and the H2A.X protein level ([8]; 6 h, at 0,5CC50) was 2485 % of control. For the same molecule, the MDM2 protein level ([8]; 6 h, at 0,5CC50) was 115 % of control, the p21 protein level ([8]; 6 h, at 0,5CC50) was 318 % of control and the p53 protein level ([8]; 6 h, at 0,5CC50, genotoxicity panel) was 52 % of control. The “level of phosphorylated H2A.X in comparison to the control compound camptothecin” value ([8]; 6 h, at 0.5CC50) was ~3.5 fold, the ATR protein level [8, 13] was 131 % of control and the Chk1 protein level [8, 14] was 144 % of control. The Chk2 protein level [8, 15] was 936 % of control, the H2A.X protein level [8, 16] was 3173 % of control and the MDM2 protein level [8, 17] was 102 % of control. The p21 protein level [8, 18] was 390 % of control, the p53 protein level [8, 19] was 128 % of control and the “phosphorylated H2A.X, marker of DNA double-strand breaks” value ([8]; six hours) was “dose-dependent increase”. For the same molecule, the Akt protein level ([9]; at 0,5CC50) was 15 % of control, the Bad protein level ([9]; at 0,5CC50) was 106 % of control and the Bcl-2 protein level ([9]; at 0,5CC50) was 140 % of control. The Casp9 protein level ([9]; at 0,5CC50) was 1144 % of control, the JNK protein level ([9]; at 0,5CC50) was 78 % of control and the p53 protein level ([9]; at 0,5CC50, apoptosis panel) was 112 % of control. The Bad protein level [9, 20] was 55 % of control, the Bcl-2 protein level [9, 21] was 20 % of control and the JNK protein level [9, 22] was 106 % of control. For the same molecule, the “Casp 8 protein level” value [9, 23] was 17 % of control, the Casp9 protein level [9, 24] was 1341 % of control and the p53 protein level [9, 25] was 160 % of control.
Work on CC[C@@]1(O)C(=O)OCc2c1cc1n(c2=O)Cc2cc3ccccc3nc2-1 [CPT, camptothecin, reference compound] yielded a CC50 at 24 h [1] of 0.588 ± 0.0462 µM, a CC50 at 24 h [3, 10] of 0.692 ± 0.0536 µM and a CC50 at 24 h [3, 11] of 0.595 ± 0.0544 µM. The CC50 at 24 h [3, 12] was 0.522 ± 0.0444 µM, the ATR protein level [8, 13] was 263 % of control and the Chk1 protein level [8, 14] was 52 % of control. For the same molecule, the Chk2 protein level [8, 15] was 5800 % of control, the H2A.X protein level [8, 16] was 957 % of control and the MDM2 protein level [8, 17] was 1417 % of control. The p21 protein level [8, 18] was 170654 % of control, the p53 protein level [8, 19] was 17285 % of control and the Akt protein level [9, 26] was 196 % of control. For the same molecule, the Bad protein level [9, 20] was 516 % of control, the Bcl-2 protein level [9, 21] was 580 % of control and the JNK protein level [9, 22] was 141 % of control. The “Casp 8 protein level” value [9, 23] was 209 % of control, the Casp9 protein level [9, 24] was 10289 % of control and the p53 protein level [9, 25] was 132 % of control.
CC(=O)O[C@H]1CC[C@@]2(C)C(CC[C@]3(C)C2CC=C2C4CC(C)(C)CC[C@]4(C(=O)Nc4ccnn4C)CC[C@]23C)C1(C)C (stereo partly drawn) [compound 7a] showed a CC50 at 24 h [1] of 22.1 ± 1.96 µM, a CC50 at 24 h [3, 10] of 58.4 ± 6.02 µM and a CC50 at 24 h [3, 11] of 17.7 ± 1.39 µM. The CC50 at 24 h [3, 12] was 14.4 ± 1.04 µM, the “cell population in the S-phase (Freq S)” value [7] was 48.89% and the “percentage of cells in the G2/M phase (Freq G2)” value [7] was 1.91%.
For COc1ccc(C[C@H]2NC[C@H](O)[C@H]2OC(C)=O)cc1 [Anisomycin, anisomycin, reference compound], the IC50 ([2]; Jurkat cells, concentration used for the control compound, read-out: IC50) was 0.192 µM, the ATR protein level [8, 13] was 440 % of control and the Chk1 protein level [8, 14] was 610 % of control. The Chk2 protein level [8, 15] was 20836 % of control, the H2A.X protein level [8, 16] was 1841 % of control and the MDM2 protein level [8, 17] was 367 % of control. The p21 protein level [8, 18] was 3727 % of control, the p53 protein level [8, 19] was 738 % of control and the Akt protein level [9, 26] was 129 % of control. The Bad protein level [9, 20] was 486 % of control, the Bcl-2 protein level [9, 21] was 3180 % of control and the JNK protein level [9, 22] was 357 % of control. For the same molecule, the “Casp 8 protein level” value [9, 23] was 1229 % of control, the Casp9 protein level [9, 24] was 9353 % of control and the p53 protein level [9, 25] was 17 % of control.
